# Measurements: PubChem BioAssay AID220 (DTP/NCI, 2004)
# “And” between values parts separate entries of the source, which are not always exact repeats. Identical values can stand only once. Records with an inconclusive call do not appear.
# Tested on: CD8F1 mice, subcutaneous mammary adenocarcinoma, T/C%
# Experiment: NCI In Vivo Anticancer Drug Screen. Data for tumor model Mammary Adenocarcinoma CD8F1 (subcutaneous) in CD8F1
# Conditions: higher = larger tumour
# Procedure, shortened: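 Tumor-bearing mice, transplantable model; readout survival or tumor size; value = treated (T) / vehicle control (C).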
# [1] = endpoint: median tumor weight change, dose: 125.0 mg/kg/injection, schedule: Q01DX001 (ip), vehicle: saline with Tween-80
# [2] = endpoint: median tumor weight (est.), dose: 25.0 mg/kg/injection, schedule: Q07DX005 (ip), vehicle: saline with Tween-80
# [3] = endpoint: median tumor weight (est.), dose: 50.0 mg/kg/injection, schedule: Q07DX005 (ip), vehicle: saline with Tween-80
# [4] = endpoint: median tumor weight (est.), dose: 400.0 mg/kg/injection, schedule: Q07DX005 (ip), vehicle: saline with Tween-80
structure (smiles),measurement,setting,value
CCn1cnc2c(=S)nc[nH]c21,T/C,[1],66 % of control
same,T/C,"endpoint: median tumor weight change, dose: 250.0 mg/kg/injection, schedule: Q01DX001 (ip), vehicle: saline with Tween-80",50 % of control
same,T/C,"endpoint: median tumor weight change, dose: 500.0 mg/kg/injection, schedule: Q01DX001 (ip), vehicle: saline with Tween-80",64 % of control
same,T/C,"endpoint: median tumor weight change, dose: 1000.0 mg/kg/injection, schedule: Q01DX001 (ip), vehicle: saline with Tween-80",39 % of control
OCCN1CCN(CC/C=C2/c3ccccc3Sc3ccc(C(F)(F)F)cc32)CC1,T/C,"endpoint: median tumor weight (est.), dose: 3.12 mg/kg/injection, schedule: Q07DX005 (ip), vehicle: saline",70 % of control
same,T/C,"endpoint: median tumor weight (est.), dose: 6.25 mg/kg/injection, schedule: Q07DX005 (ip), vehicle: saline",107 % of control
same,T/C,"endpoint: median tumor weight (est.), dose: 12.5 mg/kg/injection, schedule: Q07DX005 (ip), vehicle: saline",120 % of control
same,T/C,"endpoint: median tumor weight (est.), dose: 25.0 mg/kg/injection, schedule: Q07DX005 (ip), vehicle: saline",101 % of control
same,T/C,"endpoint: median tumor weight (est.), dose: 50.0 mg/kg/injection, schedule: Q07DX005 (ip), vehicle: saline",81 % of control
O=C(NC1CCCCC1)OCc1c(COC(=O)NC2CCCCC2)c(-c2ccc(Cl)c(Cl)c2)n2c1CCC2,T/C,[2],94 % of control
same,T/C,[3],72 % of control
same,T/C,"endpoint: median tumor weight (est.), dose: 100.0 mg/kg/injection, schedule: Q07DX005 (ip), vehicle: saline with Tween-80",20 % of control
same,T/C,"endpoint: median tumor weight (est.), dose: 200.0 mg/kg/injection, schedule: Q07DX005 (ip), vehicle: saline with Tween-80",28 % of control
Cn1cnc([N+](=O)[O-])c1S(=O)(=O)NCN1CCOCC1,T/C,"endpoint: median tumor weight (est.), dose: 12.5 mg/kg/injection, schedule: Q07DX005 (ip), vehicle: Klucel (hydroxypropylcellulose) (HPC)",103 % of control
same,T/C,"endpoint: median tumor weight (est.), dose: 25.0 mg/kg/injection, schedule: Q07DX005 (ip), vehicle: Klucel (hydroxypropylcellulose) (HPC)",164 % of control and 185 % of control
same,T/C,"endpoint: median tumor weight (est.), dose: 50.0 mg/kg/injection, schedule: Q07DX005 (ip), vehicle: Klucel (hydroxypropylcellulose) (HPC)",71 % of control
same,T/C,"endpoint: median tumor weight (est.), dose: 100.0 mg/kg/injection, schedule: Q07DX005 (ip), vehicle: Klucel (hydroxypropylcellulose) (HPC)",82 % of control and 95 % of control
CCC1=C2C(=O)c3ccccc3C2=C(C)S(=O)(=O)O1,T/C,"endpoint: median tumor weight change, dose: 31.25 mg/kg/injection, schedule: Q01DX001 (ip), vehicle: saline with Tween-80",120 % of control
same,T/C,"endpoint: median tumor weight change, dose: 62.5 mg/kg/injection, schedule: Q01DX001 (ip), vehicle: saline with Tween-80",185 % of control
same,T/C,[1],116 % of control
C[C@]12CC[C@@H]3c4ccc(OC(=O)Cc5ccc(N(CCCl)CCCl)cc5)cc4CC[C@H]3[C@@H]1CC[C@@H]2OC(=O)Cc1ccc(N(CCCl)CCCl)cc1,T/C,"endpoint: mean tumor weight, dose: 25.0 mg/kg/injection, schedule: Q07DX005 (ip), vehicle: saline with Tween-80",54 % of control
same,T/C,"endpoint: mean tumor weight, dose: 50.0 mg/kg/injection, schedule: Q07DX005 (ip), vehicle: saline with Tween-80",47 % of control
same,T/C,"endpoint: mean tumor weight, dose: 100.0 mg/kg/injection, schedule: Q07DX005 (ip), vehicle: saline with Tween-80",45 % of control
same,T/C,"endpoint: mean tumor weight, dose: 200.0 mg/kg/injection, schedule: Q07DX005 (ip), vehicle: saline with Tween-80",38 % of control
same,T/C,"endpoint: mean tumor weight, dose: 400.0 mg/kg/injection, schedule: Q07DX005 (ip), vehicle: saline with Tween-80",65 % of control
same,T/C,[2],79 % of control and 93 % of control
same,T/C,[3],45 % of control and 51 % of control
same,T/C,[4],10 % of control
CC/C(=C(/CC)c1ccc(O)cc1)c1ccc(O)cc1,T/C,"endpoint: median tumor weight (est.), dose: 12.5 mg/kg/injection, schedule: Q07DX005 (ip), vehicle: water",70 % of control
same,T/C,"endpoint: median tumor weight (est.), dose: 25.0 mg/kg/injection, schedule: Q07DX005 (ip), vehicle: water",66 % of control
same,T/C,"endpoint: median tumor weight (est.), dose: 50.0 mg/kg/injection, schedule: Q07DX005 (ip), vehicle: water",111 % of control
same,T/C,"endpoint: median tumor weight (est.), dose: 100.0 mg/kg/injection, schedule: Q07DX005 (ip), vehicle: water",101 % of control
same,T/C,"endpoint: median tumor weight (est.), dose: 200.0 mg/kg/injection, schedule: Q07DX005 (ip), vehicle: water",49 % of control
CCCC(=O)Oc1ccc(/C=N/NC(N)=S)nc1,T/C,"endpoint: median tumor weight (est.), dose: 12.5 mg/kg/injection, schedule: Q07DX005 (ip), vehicle: saline with Tween-80",279 % of control and 100 % of control
same,T/C,[3],83 % of control and 101 % of control
same,T/C,[4],121 % of control
CC[C@@]1(O)C(=O)OCc2c1cc1n(c2=O)Cc2cc3cc(O)ccc3nc2-1,T/C,"endpoint: median tumor weight change, dose: 1.85 mg/kg/injection, schedule: Q01DX001 (ip), vehicle: saline",97 % of control
same,T/C,"endpoint: median tumor weight change, dose: 7.5 mg/kg/injection, schedule: Q01DX001 (ip), vehicle: saline",107 % of control
same,T/C,"endpoint: median tumor weight change, dose: 15.0 mg/kg/injection, schedule: Q01DX001 (ip), vehicle: saline",80 % of control
same,T/C,"endpoint: median tumor weight change, dose: 30.0 mg/kg/injection, schedule: Q01DX001 (ip), vehicle: saline",28 % of control
